Patent publication US20090209536A1, “AMINOQUINAZOLINE CANNABINOID RECEPTOR MODULATORS FOR TREATMENT OF DISEASE” (KALYPSYS, INC., priority 2007, published 2009)

Experiments:
[1] = biological target: T1, human cannabinoid receptor type 2 (Homo sapiens, UniProt P34972); assay: Human CB2 Radioligand Binding Assay; conditions: competition with [3H] CP-55,940; membranes from stably transfected CHO CB2 cells; read-out: CB2 Ligand Binding Asssay EC50
T1 construct: expressed in transfected cells; membrane preparation
T1 sequence (P34972 whole entry): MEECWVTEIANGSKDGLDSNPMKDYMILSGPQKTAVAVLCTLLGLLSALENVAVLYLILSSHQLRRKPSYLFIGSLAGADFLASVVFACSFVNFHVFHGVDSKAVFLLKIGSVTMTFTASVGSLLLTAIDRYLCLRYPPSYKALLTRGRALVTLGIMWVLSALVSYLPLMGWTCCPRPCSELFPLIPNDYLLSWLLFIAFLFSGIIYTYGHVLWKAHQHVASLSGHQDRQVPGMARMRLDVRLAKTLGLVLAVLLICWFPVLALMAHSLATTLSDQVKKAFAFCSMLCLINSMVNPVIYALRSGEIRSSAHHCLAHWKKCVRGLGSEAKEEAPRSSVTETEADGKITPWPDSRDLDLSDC
Procedure, shortened: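 Test compounds (10 uM final, or dose-response) competed with [3H]CP-55,940, used at the Kd determined per membrane lot, for binding to stable human CB2-CHO membranes over 90 min at 30° C in pH 7.4 Tris/EGTA/MgCl2/BSA buffer. GF/C filtration then scintillation counting; 100 nM CP-55,940 defined 100% efficacy.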

[2] = biological target: T2, human cannabinoid receptor type 1 (Homo sapiens, UniProt P21554); assay: Human CB1 Radioligand Binding Assay (basis of selectivity, CB2 vs. CB1); conditions: CB1: HEK 293 EBNA cells expressing human CB1; CB2: CHO CB2 membranes
T2 construct: purchased Perkin Elmer RBHCB1M; host or cells: HEK 293 EBNA cells
T2 sequence (P21554 whole entry): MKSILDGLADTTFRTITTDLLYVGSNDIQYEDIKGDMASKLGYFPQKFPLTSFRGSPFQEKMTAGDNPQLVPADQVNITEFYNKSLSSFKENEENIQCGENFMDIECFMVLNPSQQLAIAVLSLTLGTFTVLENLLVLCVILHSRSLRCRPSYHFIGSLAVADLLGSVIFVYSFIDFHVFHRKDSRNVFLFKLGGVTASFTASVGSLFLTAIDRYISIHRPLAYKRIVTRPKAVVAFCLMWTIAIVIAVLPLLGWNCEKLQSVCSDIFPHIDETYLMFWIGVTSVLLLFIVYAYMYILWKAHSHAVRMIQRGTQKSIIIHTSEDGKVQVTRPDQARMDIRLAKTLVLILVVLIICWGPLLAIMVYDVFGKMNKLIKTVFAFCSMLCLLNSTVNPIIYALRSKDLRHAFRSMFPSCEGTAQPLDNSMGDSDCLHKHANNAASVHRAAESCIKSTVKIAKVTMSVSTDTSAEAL
Protocol: 2. Human CB1 Radioligand Binding Assay
The incubation buffer was composed of 50 mM Tris-HCl pH 7.4, 2.5 mM EDTA, 5 mM MgCl2, 5.0 mg/ml fatty acid free BSA and the wash buffer was composed of 50 mM Tris-HCl pH 7.4, 2.5 mM EDTA, 5 mM MgCl2, 0.5 mg/ml fatty acid free BSA.

Structure (SMILES)	EC50 [1] [nM]	Selectivity, CB2 vs. CB1 [2]
CCOC(=O)N1CCN(c2nc(-c3ccccc3Cl)nc3ccc(C(=O)N(CC)CC)cc23)CC1 [Example 314, Ethyl 4-(2-(2-chlorophenyl)-6-(diethylcarbamoyl)quinazolin-4-yl)piperazine-1-carboxylate]	> 1000	+ (+ indicates > 10−fold)
CN(c1ccc(C(C)(C)C)cc1)c1nc(-c2ccc(C(C)(C)C)cc2)nc2ccccc12 [Example 119, N,2-Bis(4-tert-butylphenyl)-N-methylquinazolin-4-amine]	> 1000	− (− indicates ≦ 10−fold)
COc1ccc2c(N3CCCC3)nc(C3CCCCC3)nc2c1 [Example 159, 2-Cyclohexyl-7-methoxy-4-(pyrrolidin-1-yl)quinazoline]	> 1000	+ (+ indicates > 10−fold)
CN(CC1CCCCC1)c1nc(-c2ccccc2Cl)nc2ccccc12 [Example 194, 2-(2-Chlorophenyl)-N-(cyclohexylmethyl)-N-methylquinazolin-4-amine]	< 1000	− (− indicates ≦ 10−fold)
CC(C)(C)c1ccc(-c2nc(N3CCSCC3)c3ccccc3n2)cc1 [Example 114, 2-(4-tert-Butylphenyl)-4-thiomorpholin-4-ylquinazoline]	< 1000	+ (+ indicates > 10−fold)
CCOc1ccc(Nc2nc(-c3ccccc3Cl)nc3ccccc23)cc1 [Example 332, 2-(2-Chlorophenyl)-N-(4-ethoxyphenyl)quinazolin-4-amine]	> 1000	− (− indicates ≦ 10−fold)
CCC(=O)N1CCN(c2nc(-c3ccccc3Cl)nc3cccc(Cl)c23)CC1 [Example 260, 1-(4-(5-Chloro-2-(2-chlorophenyl)quinazolin-4-yl)piperazin-1-yl)propan-1-one]	< 1000	+ (+ indicates > 10−fold)
CN(c1ccc(F)cc1F)c1nc(-c2ccc(C(C)(C)C)cc2)nc2ccccc12 [Example 116, 2-(4-tert-Butylphenyl)-N-(2,4-difluorophenyl)-N-methylquinazolin-4-amine]	> 1000	− (− indicates ≦ 10−fold)
CC(C)(C)c1ccc2c(N3CCCC3)nc(Nc3ccc(F)c(F)c3)nc2c1 [Example 289, 7-tert-Butyl-N-(3,4-difluorophenyl)-4-(pyrrolidin-1-yl)quinazolin-2-amine]	< 1000	− (− indicates ≦ 10−fold)
CCCCN1CCN(c2nc(-c3ccccc3Cl)nc3ccccc23)CC1 [Example 107]	> 1000	− (− indicates ≦ 10−fold)
Clc1ccccc1-c1nc(N2CCNCC2)c2c(Cl)cccc2n1 [Example 236, 5-Chloro-2-(2-chlorophenyl)-4-(piperazin-1-yl)quinazoline]	> 1000	− (− indicates ≦ 10−fold)
FC(F)(F)c1ccc(-c2nc(N3CCOCC3)c3ccccc3n2)cc1 [Example 43, 4-(2-(4-(Trifluoromethyl)phenyl)quinazolin-4-yl)morpholine]	< 1000	+ (+ indicates > 10−fold)
CN(c1nc(-c2ccccc2Cl)nc2ccccc12)C1CCCCC1 [Example 63, 2-(2-Chlorophenyl)-N-cyclohexyl-N-methylquinazolin-4-amine]	< 1000	− (− indicates ≦ 10−fold)
CC(C)(C)CCNc1nc(-c2ccccc2Cl)nc2ccccc12 [Example 189, 2-(2-Chlorophenyl)-N-(3,3-dimethylbutyl)quinazolin-4-amine]	> 1000	− (− indicates ≦ 10−fold)
Clc1ccc2nc(-c3ccccc3Cl)nc(N3CCCC3)c2c1 [Example 205, 6-Chloro-2-(2-chlorophenyl)-4-(pyrrolidin-1-yl)quinazoline]	< 1000	+ (+ indicates > 10−fold)
CN1CCCN(c2nc(-c3ccccc3Cl)nc3ccccc23)CC1 [Example 333, 2-(2-Chlorophenyl)-4-(4-methyl-1,4-diazepan-1-yl)quinazoline]	< 1000	− (− indicates ≦ 10−fold)
O=C(c1ncc[nH]1)N1CCN(c2nc(-c3ccccc3Cl)nc3ccccc23)CC1 [Example 262, (4-(2-(2-Chlorophenyl)quinazolin-4-yl)piperazin-1-yl)(1H-imidazol-2-yl)methanone]	> 1000	− (− indicates ≦ 10−fold)
Clc1ccccc1-c1nc(NCCCn2ccnc2)c2ccccc2n1 [Example 258, N-(3-(1H-Imidazol-1-yl)propyl)-2-(2-chlorophenyl)quinazolin-4-amine]	> 1000	− (− indicates ≦ 10−fold)
CCCCN(C)c1nc(-c2ccccc2Cl)nc2ccccc12 [Example 64, N-Butyl-2-(2-chlorophenyl)-N-methylquinazolin-4-amine]	< 1000	− (− indicates ≦ 10−fold)

The remaining lines, values ahead:

EC50 [1] [nM]	Selectivity, CB2 vs. CB1 [2]	Structure (SMILES)
< 1000	+ (+ indicates > 10−fold)	CCOC(=O)N1CCN(c2nc(Nc3ccccc3)nc3cc(C(C)(C)C)ccc23)CC1 [Example 286, Ethyl 4-(7-tert-butyl-2-(phenylamino)quinazolin-4-yl)piperazine-1-carboxylate]
< 1000	− (− indicates ≦ 10−fold)	O=S(=O)(NCc1nc(NC2CCCC2)c2ccccc2n1)c1cccc2ccccc12 [Example 305, N-((4-(Cyclopentylamino)quinazolin-2-yl)methyl)naphthalene-1-sulfonamide]
< 1000	− (− indicates ≦ 10−fold)	CCc1ccc2nc(-c3ccccc3Cl)nc(N3CCCCC3)c2c1 [Example 175, 2-(2-Chlorophenyl)-6-ethyl-4-(piperidin-1-yl)quinazoline]
< 1000	+ (+ indicates > 10−fold)	CC(C)(C)c1ccc(-c2nc(NCC3CC3)c3ccccc3n2)cc1 [Example 130, 2-(4-tert-Butylphenyl)quinazolin-4-yl cyclopropylmethylamine]
< 1000	− (− indicates ≦ 10−fold)	Clc1ccccc1-c1nc(N2CCc3ccccc3C2)c2ccccc2n1 [Example 61, 2-(2-Chlorophenyl)-4-(3,4-dihydroisoquinolin-2(1H)-yl)quinazoline]
< 1000	− (− indicates ≦ 10−fold)	Clc1ccccc1-c1nc(N2CCCC2)c2cc(Br)ccc2n1 [Example 184, 6-Bromo-2-(2-chlorophenyl)-4-(pyrrolidin-1-yl)quinazoline]
< 1000	+ (+ indicates > 10−fold)	CN1CCN(c2nc(-c3ccccc3Cl)nc3ccccc23)CC1 [Example 57, 2-(2-Chlorophenyl)-4-(4-methylpiperazin-1-yl)quinazoline]
< 1000	− (− indicates ≦ 10−fold)	COc1ccc2nc(-c3ccccc3Cl)nc(N3CCN(C)CC3)c2c1 [Example 177, 2-(2-Chlorophenyl)-6-methoxy-4-(4-methylpiperazin-1-yl)quinazoline]
< 1000	+ (+ indicates > 10−fold)	Fc1ccccc1-c1nc(N2CCCC2)c2c(F)cccc2n1 [Example 282, 5-Fluoro-2-(2-fluorophenyl)-4-(pyrrolidin-1-yl)quinazoline]
< 1000	− (− indicates ≦ 10−fold)	O=S(=O)(NCc1nc(N2Cc3ccccc3C2)c2ccccc2n1)c1cccc2ccccc12 [Example 308, N-((4-(isoindolin-2-yl)quinazolin-2-yl)methyl)naphthalene-1-sulfonamide]
< 1000	− (− indicates ≦ 10−fold)	CC1CCN(c2nc(-c3ccc(Cl)cc3)nc3ccccc23)CC1 [Example 125, 2-(4-Chlorophenyl)-4-(4-methylpiperidin-1-yl)quinazoline]
< 1000	+ (+ indicates > 10−fold)	O=S(=O)(NCc1nc(N2CCCC2)c2ccc(Cl)cc2n1)c1cccc2ccccc12 [Example 309, N-((7-Chloro-4-(pyrrolidin-1-yl)quinazolin-2-yl)methyl)naphthalene-1-sulfonamide]
< 1000	+ (+ indicates > 10−fold)	CCOC(=O)N1CCN(c2nc(Cc3cccc4ccccc34)nc3ccccc23)CC1 [Example 345, Ethyl 4-(2-(naphthalen-1-ylmethyl)quinazolin-4-yl)piperazine-1-carboxylate]
< 1000	− (− indicates ≦ 10−fold)	CN1CCN(c2nc(C3CCCCC3)nc3ccccc23)CC1 [Example 33, 2-Cyclohexyl-4-(4-methylpiperazin-1-yl)quinazoline]
< 1000	+ (+ indicates > 10−fold)	CCOC(=O)N1CCN(c2nc(-c3ccc(C(C)(C)C)cc3)nc3ccc(OC)cc23)CC1 [Example 250, Ethyl 4-(2-(4-tert-butylphenyl)-6-methoxyquinazolin-4-yl)piperazine-1-carboxylate]
< 1000	+ (+ indicates > 10−fold)	CCOC(=O)N1CCN(c2nc(-c3ccccc3Cl)nc3cccc(Cl)c23)CC1 [Example 266, Ethyl 4-(5-chloro-2-(2-chlorophenyl)quinazolin-4-yl)piperazine-1-carboxylate]
